≈ marks a conversion by molar mass, not a printed value.
Columns and labels:
[1] = target: ADC-7/R340A mutant; experiment: Competition kinetics with nitrocefin; format: biochemical, Acinetobacter baumannii
[2] = tested on: E. coli DH10B; experiment: MIC, agar dilution and liquid microdilution; format: cell-based, Escherichia coli
[3] = tested on: E. coli DH10B pBCSK, blaADC-7, R340K; experiment: MIC, agar dilution and liquid microdilution; format: cell-based, Escherichia coli
[4] = tested on: ADC-7; experiment: Thermal denaturation by circular dichroism; format: binding, Acinetobacter baumannii; conditions: ADC-7 alone Tm ≈61 °C
[5] = tested on: A. baumannii M9; experiment: MIC, agar dilution and liquid microdilution; format: cell-based
[6] = tested on: E. coli DH10B pBCSK, blaADC-7; experiment: MIC, agar dilution and liquid microdilution; format: cell-based, Escherichia coli
[7] = tested on: E. coli DH10B pBCSK, blaADC-7, N213A; experiment: MIC, agar dilution and liquid microdilution; format: cell-based, Escherichia coli
[8] = tested on: E. coli DH10B pBCSK, blaADC-7, R340A; experiment: MIC, agar dilution and liquid microdilution; format: cell-based, Escherichia coli
[9] = MIC of CAZ in combination with 4 μg/mL BATSI compound

SMILES | Ki [1] [nM] | MIC [2, 9] [µg/mL] | MIC [3, 9] [µg/mL] | Tm of ADC-7/compound complex [4] [°C] | MIC [5, 9] [µg/mL] | MIC [6, 9] [µg/mL] | MIC [7, 9] [µg/mL] | MIC [8, 9] [µg/mL] | MIC ([2]; Escherichia coli, DH10B) [µg/mL] | MIC ([3]; Escherichia coli) [µg/mL] | MIC ([5]; Acinetobacter baumannii, M9) [µg/mL] | MIC ([5]; CAZ alone) [µg/mL] | MIC ([6]; Escherichia coli) [µg/mL] | MIC ([7]; Escherichia coli) [µg/mL] | MIC ([8]; Escherichia coli) [µg/mL]
O=S(=O)(NCB(O)O)c1ccc(-c2nn[nH]n2)cc1C(F)(F)F [CR192] | 8.3 | 0.5 | 2 | ~70 | 8 | 2 | 1 | 0.5 |  |  |  |  |  |  | 
O=S(=O)(NCB(O)O)c1ccc(-c2nn[nH]n2)cc1 [CR157] |  | 0.5 | 1 |  | 8 | 1 | 2 | 0.5 |  |  |  |  |  |  | 
CC(C)(O/N=C(\C(=O)N[C@@H]1C(=O)N2C(C(=O)[O-])=C(C[n+]3ccccc3)CS[C@H]12)c1csc(N)n1)C(=O)O [CAZ, ceftazidime, reference compound] |  |  |  |  |  |  |  |  | 1 (≈ 1.83 µM) | 32 (≈ 58.5 µM) | > 64 | >64 | 64 (≈ 117 µM) | 32 (≈ 58.5 µM) | 32 (≈ 58.5 µM)
O=S(=O)(NCB(O)O)c1ccc(-c2nn[nH]n2)nc1 [CR161] |  | 0.5 | 1 |  |  | 0.5 | 2 | 1 |  |  |  |  |  |  | 
O=C(O)c1cccc(CS(=O)(=O)NCB(O)O)c1 [CR167] |  | 0.5 | 4 |  | 16 | 1 | 4 | 2 |  |  |  |  |  |  | 
O=C(Cc1cccs1)NCB(O)O [achiral cephalothin, reference compound] |  | 0.5 | 32 |  | 32 | 32 | 32 | 32 |  |  |  |  |  |  | 

— PMC5981863 (ACS infectious diseases, 2017)
